The source of these data is patent US11339136B2 (Novartis AG, priority 2016, dated 2022).

The target of this experiment is T1, hNLRP3 (Homo sapiens, UniProt Q96P20).
T1 construct: THP-1 cells were purchased from the American Type Culture Collection; host or cells: THP-1 cells, PMA-differentiated
The experiment in a line: IL-1β production in PMA-differentiated THP-1 cells stimulated with gramicidin. Type of experiment: cell-based. Particulars: gramicidin 5 μM, IL-1β in supernatant. Here is the method: Bioassay: IL-1β Production in PMA-Differentiated THP-1 Cells Stimulated with Gramicidin. Procedure 1:
Cell culture—THP-1 cells were purchased from the American Type Culture Collection and sub-cultured according to instructions from the supplier. Prior to experiments, cells were cultured in RPMI 1640 containing 10% heat inactivated FBS, penicillin (100 units/ml) and streptomycin (100 μg/ml), and maintained in log phase prior to experimental setup. Prior to the experiment THP-1 were treated with PMA (Phorbol 12-myristate 13-acetate) (10 μg/ml) for 24 hours. The day of the experiment the media was removed and attaching cells were treated with trypsin for 2 minutes, cells were then collected, washed with PBS (phosphate buffer saline), spin down, resuspended in 2% heat inactivated FBS with RPMI at a concentration of 1×10^6 cells/ml, and 100 ul was plated in a 96 well plate. Cells were incubated with compounds for 1 hours and then stimulated with Gramicidin (5 μM) (Enzo) for 2 hours. Cell free supernatant was collected and the production of IL-1β was evaluated by ELISA. Compounds were dissolved in dimethyl sulfoxide (DMSO) and added to the culture medium to achieve desired concentration (e.g. 100, 30, 10, 3, 1, 0.3 or 0.1 μM). A vehicle only control was run concurrently with each experiment. Final DMSO concentration was 1%.
THP-1 cells were purchased from the American Type Culture Collection and sub-cultured according to instructions from the supplier. Prior to experiments, cells were cultured in complete RPMI 1640 (containing 10% heat inactivated FBS, penicillin (100 units/ml) and streptomycin (100 μg/ml)), and maintained in log phase prior to experimental setup. Prior to the experiment THP-1 were treated with PMA (Phorbol 12-myristate 13-acetate) (20 ng/ml) for 16-18 hours. On the day of the experiment the media was removed and adherent cells were detached with trypsin for 5 minutes. Cells were then harvested, washed with complete RPMI 1640, spun down, resuspended in RPMI 1640 (containing 2% heat inactivated FBS, penicillin (100 units/ml) and streptomycin (100 μg/ml). The cells were plated in a 384-well plate at a density of 50,000 cells/well (final assay volume 50 μl). Compounds were dissolved in dimethyl sulfoxide (DMSO) and added to the culture medium to achieve desired concentration (e.g. 100, 33, 11, 3.7, 1.2, 0.41, 0.14, 0.046, 0.015, 0.0051, 0.0017 μM). Cells were incubated with compounds for 1 hour and then stimulated with gramicidin (5 μM) (Enzo) for 2 hours. Cell free supernatant was collected and the production of IL-1β was evaluated by HTRF (cisbio). A vehicle only control was run concurrently with each experiment. Final DMSO concentration was 0.38%.

T1 sequence (Q96P20 whole entry): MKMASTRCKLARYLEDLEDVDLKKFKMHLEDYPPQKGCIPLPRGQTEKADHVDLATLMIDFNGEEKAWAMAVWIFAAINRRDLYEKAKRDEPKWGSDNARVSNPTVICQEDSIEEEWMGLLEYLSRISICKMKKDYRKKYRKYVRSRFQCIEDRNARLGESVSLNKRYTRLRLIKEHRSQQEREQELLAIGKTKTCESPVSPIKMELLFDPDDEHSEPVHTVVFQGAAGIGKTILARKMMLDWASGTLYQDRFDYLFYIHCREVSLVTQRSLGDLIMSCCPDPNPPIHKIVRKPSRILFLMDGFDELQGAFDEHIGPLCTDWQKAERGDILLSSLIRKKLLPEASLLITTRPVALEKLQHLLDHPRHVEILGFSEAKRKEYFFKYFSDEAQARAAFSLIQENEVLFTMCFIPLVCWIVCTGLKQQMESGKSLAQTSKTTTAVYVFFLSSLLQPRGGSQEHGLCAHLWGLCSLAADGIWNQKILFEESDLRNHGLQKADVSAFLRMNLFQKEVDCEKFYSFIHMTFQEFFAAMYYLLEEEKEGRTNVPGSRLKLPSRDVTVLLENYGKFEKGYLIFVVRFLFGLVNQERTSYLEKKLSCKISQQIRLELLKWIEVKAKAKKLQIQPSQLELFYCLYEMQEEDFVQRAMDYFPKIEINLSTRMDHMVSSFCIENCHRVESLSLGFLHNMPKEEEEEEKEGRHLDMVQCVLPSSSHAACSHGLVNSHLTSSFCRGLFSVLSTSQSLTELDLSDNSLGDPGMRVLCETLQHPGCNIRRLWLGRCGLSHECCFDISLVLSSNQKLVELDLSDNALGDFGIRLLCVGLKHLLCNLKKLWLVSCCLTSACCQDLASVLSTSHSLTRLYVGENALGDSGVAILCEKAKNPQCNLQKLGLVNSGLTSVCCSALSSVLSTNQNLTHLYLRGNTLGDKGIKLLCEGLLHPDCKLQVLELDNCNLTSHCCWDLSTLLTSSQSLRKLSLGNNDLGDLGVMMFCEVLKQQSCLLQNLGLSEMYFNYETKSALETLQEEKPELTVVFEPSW

The term IC50 denotes the concentration needed to halve the response being measured. Lower therefore signals greater potency in that assay. As to `CC(C)c1cc(C(N)=O)cc(C(C)C)c1NC(=O)NS(=O)(=O)c1cc(C(C)(C)O)co1` [Compound 116, 4-(3-(4-(2-hydroxypropan-2-yl)furan-2-ylsulfonyl)ureido)-3,5-diisopropylbenz-amide], where the note is “Table 1”, the 50% inhibitory concentration (IC50) was 15000 to 35000 nM.

For the compound `CCc1ccc2c(c1NC(=O)NS(=O)(=O)c1cc(C(C)(C)O)cs1)CCC2` [Compound 166, N-(5-ethyl-2,3-dihydro-1H-inden-4-ylcarbamoyl)-4-(2-hydroxypropan-2-yl)thiophene-2-sulfonamide], the IC50 (Table 2) lay within 1000 to 5000 nM.

Under “Table 2”, `Cc1cc(C(C)C)c(NC(=O)NS(=O)(=O)c2cnc(C(C)(C)O)s2)c(C(C)C)c1` [Compound 272] gave an IC50 of 1000 to 5000 nM.

`CC(C)(O)c1ncsc1S(=O)(=O)NC(=O)Nc1c2c(cc3c1CCC3)CCC2` [Compound 266] gave a half-maximal inhibitory concentration (IC50) (Table 2) of 1000 to 5000 nM.

On to `CC(C)(O)c1csc(S(=O)(=O)NC(=O)Nc2cccc3c2CCC3)c1` [Compound 191, N-(2,3-dihydro-1H-inden-4-ylcarbamoyl)-4-(2-hydroxypropan-2-yl) thiophene-2-sulfonamide], for which the IC50 (Table 2) fell in the range of 1000 to 5000 nM.

Take `CC(C)c1cc(Cl)cc(C(C)C)c1NC(=O)NS(=O)(=O)c1nc(C(C)(C)O)cs1` [Compound 147, N-(4-chloro-2,6-diisopropylphenylcarbamoyl)-4-(2-hydroxypropan-2-yl)thiazole-2-sulfonamide]: for the setting “Table 2”, the IC50 lay in the range of 1000 to 5000 nM.

As to `O=C(Nc1c2c(cc3c1CCC3)CCC2)NS(=O)(=O)c1ccc(C2(O)CC2)s1` [Compound 202, N-(1,2,3,5,6,7-hexahydros-indacen-4-ylcarbamoyl)-5-(1-hydroxycyclopropyl) thiophene-2-sulfonamide], the half-inhibitory concentration (IC50) (Table 2) was under 1000 nM.

Compound `O=C(Nc1c2c(c(Cl)c3c1CCC3)CCC2)NS(=O)(=O)c1cc(C2(O)CC2)cs1` [Compound 210, N-(8-chloro-1,2,3,5,6,7-hexahydros-indacen-4-ylcarbamoyl)-4-(1-hydroxycyclo-propyl)thiophene-2-sulfonamide] had an IC50 (Table 2) of under 1000 nM.

The compound `CC(C)c1cc(F)cc(C(C)C)c1NC(=O)NS(=O)(=O)c1cc(C2(O)CC2)cs1` [Compound 204, N-(4-fluoro-2,6-diisopropylphenyl-carbamoyl)-4-(1-hydroxycyclo-propyl)thiophene-2-sulfonamide] showed an IC50 (Table 2) of under 1000 nM.

As for `CC(C)c1cc(F)cc(C(C)C)c1NC(=O)NS(=O)(=O)c1nc(C(C)(C)O)cs1` [Compound 148, N-(4-fluoro-2,6-diisopropylphenylcarbamoyl)-4-(2-hydroxypropan-2-yl) thiazole-2-sulfonamide], under “Table 2”, the IC50 was 1000 to 5000 nM.

The compound `CC(C)c1cc(C#N)cc(C(C)C)c1NC(=O)NS(=O)(=O)c1ccc(C(C)(C)O)s1` [Compound 184, N-(4-cyano-2,6-diisopropylphenylcarbamoyl)-5-(2-hydroxypropan-2-yl) thiophene-2-sulfonamide] registered an IC50 (Table 2) of under 1000 nM.

On to `CC(C)(O)c1csc(S(=O)(=O)NC(=O)Nc2c3c(c(Cl)c4c2CCC4)CCC3)c1` [Compound 232, N-(8-chloro-1,2,3,5,6,7-hexahydros-indacen-4-ylcarbamoyl)-4-(2-hydroxypropan-2-yl)thiophene-2-sulfonamide], for which the half-maximal inhibitory concentration (IC50) (Table 2) was under 1000 nM.

For the setting “Table 2”, `CC(C)c1ccc(F)c(C(C)C)c1NC(=O)NS(=O)(=O)c1ncc(C(C)(C)O)s1` [Compound 213, N-(3-fluoro-2,6-diisopropylphenyl-carbamoyl)-5-(2-hydroxypropan-2-yl)thiazole-2-sulfonamide] showed an IC50 of under 1000 nM.

`CC(C)c1cc(F)cc(C(C)C)c1NC(=O)NS(=O)(=O)c1cc(C2(O)CC2)co1` [Compound 205, N-(4-fluoro-2,6-diisopropylphenyl-carbamoyl)-4-(1-hydroxycyclo-propyl)furan-2-sulfonamide] showed a half-maximal inhibitory concentration (IC50) (Table 2) of under 1000 nM.

Compound `Cc1sc(S(=O)(=O)NC(=O)Nc2c(C(C)C)ccc(F)c2C(C)C)cc1C(C)(C)O` [Compound 154, N-(3-fluoro-2,6-diisopropylphenylcarbamoyl)-4-(2-hydroxypropan-2-yl)-5-methylthiophene-2-sulfonamide] had an IC50 (Table 2) of 1000 to 5000 nM.

As for `N#Cc1c2c(c(NC(=O)NS(=O)(=O)c3ccc(C4(O)CC4)s3)c3c1CCC3)CCC2` [Compound 178, N-(8-cyano-1,2,3,5,6,7-hexahydros-indacen-4-ylcarbamoyl)-5-(1-hydroxycyclopropyl) thiophene-2-sulfonamide], the concentration for half-maximal inhibition (IC50) (Table 2) was 1000 to 5000 nM.

In the case of `CCc1cc(C#N)cc(CC)c1NC(=O)NS(=O)(=O)c1cc(C(C)(C)O)cs1` [Compound 159, N-(4-cyano-2,6-diethylphenylcarbamoyl)-4-(2-hydroxypropan-2-yl)thiophene-2-sulfonamide], for the setting “Table 2”, the IC50 lay in the range of 1000 to 5000 nM.

Where the note is “Table 2”, `CCc1cc(Cl)cc(CC)c1NC(=O)NS(=O)(=O)c1cc(C(C)(C)O)cs1` [Compound 171, N-(4-chloro-2,6-diethylphenylcarbamoyl)-4-(2-hydroxypropan-2-yl) thiophene-2-sulfonamide] returned an IC50 of 1000 to 5000 nM.

Compound `Cc1sc(S(=O)(=O)NC(=O)Nc2c(C(C)C)cc(F)cc2C(C)C)cc1C(C)(C)O` [Compound 157, N-(4-fluoro-2,6-diisopropylphenyl-carbamoyl)-4-(2-hydroxypropan-2-yl)-5-methylthiophene-2-sulfonamide] displayed an IC50 (Table 2) of under 1000 nM.

The compound `CC(C)c1cncc(C(C)C)c1NC(=O)NS(=O)(=O)c1ncc(C(C)(C)O)s1` [Compound 138] had a half-maximal inhibitory concentration (IC50) (Table 2) of 1000 to 5000 nM.

Where the note is “Table 2”, `CC(C)c1cc(F)cc(C(C)C)c1NC(=O)NS(=O)(=O)c1cnc(C(C)(C)O)s1` [Compound 269] yielded an IC50 of 1000 to 5000 nM.

In the case of `CC(C)(O)c1coc(S(=O)(=O)NC(=O)Nc2c3c(c(C#N)c4c2CCC4)CCC3)c1` [Compound 105, N-(8-cyano-1,2,3,5,6,7-hexahydros-indacen-4-ylcarbamoyl)-4-(2-hydroxypropan-2-yl)furan-2-sulfonamide], under “Table 1”, the 50% inhibitory concentration (IC50) is under 1000 nM.

In turn, `CC(C)c1ccc(F)c(C(C)C)c1NC(=O)NS(=O)(=O)c1ccc(C2(O)CC2)s1` [Compound 195, N-(3-fluoro-2,6-diisopropylphenylcarbamoyl)-5-(1-hydroxycyclopropyl) thiophene-2-sulfonamide] gave a half-maximal inhibitory concentration (IC50) (Table 2) of 1000 to 5000 nM.

For `CC(C)c1cc(C#N)cc(C(C)C)c1NC(=O)NS(=O)(=O)c1cc(C(C)(C)O)c(Cl)s1` [Compound 251, 5-chloro-N-(4-cyano-2,6-diisopropylphenyl-carbamoyl)-4-(2-hydroxypropan-2-yl)thiophene-2-sulfonamide], where the note is “Table 2”, the 50% inhibitory concentration (IC50) was under 1000 nM.

Turning to `CC(C)c1ccc(F)c(C(C)C)c1NC(=O)NS(=O)(=O)c1ncc(C2(O)CCCCC2)s1` [Compound 167, N-(3-fluoro-2,6-diisopropylphenylcarbamoyl)-5-(1-hydroxycyclohexyl) thiazole-2-sulfonamide], for the setting “Table 2”, the IC50 lay within 5000 to 15000 nM.

In turn, `CC(C)c1cc(F)cc(C(C)C)c1NC(=O)NS(=O)(=O)c1ccc(C(C)(C)O)s1` [Compound 257] came in with an IC50 (Table 2) of under 1000 nM.

In the case of `CC(C)c1ccc(F)c(C(C)C)c1NC(=O)NS(=O)(=O)c1ccc(C(C)(C)O)s1` [Compound 185, N-(3-fluoro-2,6-diisopropylphenylcarbamoyl)-5-(2-hydroxypropan-2-yl)thiophene-2-sulfonamide], the IC50 (Table 2) lay in the range of 1000 to 5000 nM.

As for `CC(C)(O)c1ncsc1S(=O)(=O)NC(=O)Nc1c2c(c(F)c3c1CCC3)CCC2` [Compound 268], where the note is “Table 2”, the half-maximal inhibitory concentration (IC50) lay in the range of 1000 to 5000 nM.

Consider `CC(C)(O)c1cnc(S(=O)(=O)NC(=O)Nc2c3c(c(F)c4c2CCC4)CCC3)s1` [Compound 209, N-(8-fluoro-1,2,3,5,6,7-hexahydros-indacen-4-ylcarbamoyl)-5-(2-hydroxypropan-2-yl)thiazole-2-sulfonamide], for which the 50% inhibitory concentration (IC50) (Table 2) was under 1000 nM.

`CCc1cc(Cl)cc(CC)c1NC(=O)NS(=O)(=O)c1ncc(C(C)(C)O)s1` [Compound 170, N-(4-chloro-2,6-diethylphenylcarbamoyl)-5-(2-hydroxypropan-2-yl) thiazole-2-sulfonamide] showed an IC50 (Table 2) of 5000 to 15000 nM.

Turning to `Cc1sc(S(=O)(=O)NC(=O)Nc2c(C(C)C)cc(Cl)cc2C(C)C)cc1C(C)(C)O` [Compound 156, N-(4-chloro-2,6-diisopropylphenyl-carbamoyl)-4-(2-hydroxypropan-2-yl)-5-methylthiophene-2-sulfonamide], for the setting “Table 2”, the IC50 was under 1000 nM.
